Drawing on PubChem BioAssay (NCI), this text covers TGI and GI50 for 18 compounds.

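Each compound was tested at five concentrations against cells in 96-well plates for 48 hours. Abbreviation: GI50, concentration required for 50% inhibition of growth. TGI marks complete inhibition of growth.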 Some results are limits rather than exact numbers.

Some test systems named below: HL-60(TB) leukemia; SF-539 CNS; 786-0 renal; HCT-116 colon; HOP-62 NSCLC; EKVX NSCLC; PC-3 prostate; T-47D breast; DU-145 prostate; BT-549 breast.
Common to all, as to assay: NCI tumour cell line growth inhibition, 48 h

In the case of `Cc1cn(C2C=CC(=O)C(C)O2)c(=O)[nH]c1=O` (stereo not drawn), the TGI was 38.1 µM in the assay on HL-60(TB) leukemia; 32.8 µM in the assay on SF-539 CNS; 32.2 µM in the assay with 786-0 renal; 24.6 µM with HCT-116 colon; 43.2 µM in the assay with HOP-62 NSCLC.
Turning to `COc1ccc(-c2cc(-c3ccccc3)c(C#N)c(=O)[nH]2)cc1`, the TGI with HL-60(TB) leukemia, with EKVX NSCLC, in the assay on SF-539 CNS, with 786-0 renal, with HCT-116 colon and with HOP-62 NSCLC was > 100 µM in each case.
`O=C1c2c(c3c4ccccc4n4c3c3c2c2ccccc2n3C/C=C\C4)C(=O)N1Cc1ccccc1`: the TGI with HL-60(TB) leukemia, in the assay with EKVX NSCLC, in the assay with SF-539 CNS, with 786-0 renal, in the assay on HCT-116 colon and with HOP-62 NSCLC was > 100 µM each time.
Consider `OCCc1cnco1`, for which the TGI with HL-60(TB) leukemia, with EKVX NSCLC, in the assay with SF-539 CNS, in the assay with 786-0 renal, in the assay with HCT-116 colon and with HOP-62 NSCLC was > 100 µM throughout.
With `CN(C)c1nc(N(C)C)nc(N(C)CN(C)c2nc(N(C)C)nc(N(C)C)n2)n1`, the TGI in the assay on HL-60(TB) leukemia was > 100 µM; in the assay with EKVX NSCLC it was > 100 µM; in the assay with SF-539 CNS, > 100 µM; in the assay on 786-0 renal, 32.9 µM; with HCT-116 colon it was > 100 µM; in the assay on HOP-62 NSCLC, > 100 µM.
On to `O=C1C2Cc3ccccc3CN2C(=O)N1CN1CCN(CN2C(=O)C3Cc4ccccc4CN3C2=O)CC1` (stereo not drawn), for which the TGI in the assay with HL-60(TB) leukemia, with EKVX NSCLC, in the assay on SF-539 CNS, in the assay on 786-0 renal and in the assay on HOP-62 NSCLC was > 100 µM in each case.
For `CC1SC2=NC3=C(c4ccccc4C3=O)C(c3ccc(Br)cc3)N2C1=O` (stereo not drawn), the TGI with HL-60(TB) leukemia was 62.8 µM; with EKVX NSCLC, > 100 µM; in the assay on 786-0 renal, > 100 µM; in the assay on HOP-62 NSCLC, > 100 µM.
For `C#CCOCn1cnc2ncnc(Cl)c21`, the TGI in the assay on EKVX NSCLC, in the assay on SF-539 CNS, in the assay on 786-0 renal, in the assay with HCT-116 colon and with HOP-62 NSCLC was > 100 µM throughout.
Consider `CSc1nc(Cl)c(Br)c(Nc2c[nH]c(=O)[nH]c2=O)n1`, for which the TGI with HL-60(TB) leukemia turned out to be 5.47 µM; with EKVX NSCLC, 33.8 µM; in the assay on PC-3 prostate, 45.8 µM; in the assay on SF-539 CNS, 45.2 µM; with T-47D breast it was 40 µM; in the assay on 786-0 renal, 27.1 µM. In addition, the TGI was 29.3 µM with HCT-116 colon, 49.9 µM in the assay on DU-145 prostate and 53.5 µM in the assay with HOP-62 NSCLC.
In the case of `CC(C)C(/C=C/c1ccccc1)=N\NC(=O)N/N=C(/C=C/c1ccccc1)C(C)C`, the TGI in the assay with HL-60(TB) leukemia is 45.9 µM; in the assay on EKVX NSCLC, 45.8 µM; with SF-539 CNS, > 100 µM; with 786-0 renal it was 41.9 µM; in the assay with HCT-116 colon, 45 µM; in the assay on HOP-62 NSCLC, > 100 µM.
For the compound `CC(=O)Nc1ccc(-c2nnc(SCC(=O)Nc3ccccc3[N+](=O)[O-])o2)cc1`, the TGI with HL-60(TB) leukemia, in the assay with SF-539 CNS, in the assay on 786-0 renal, in the assay on HCT-116 colon and with HOP-62 NSCLC was > 100 µM in each case.
Take `CC1(C)CCc2cc3c(cc2O1)OC(C)(C)C1c2c(ccc4c2CCC(C)(C)O4)OC31` (stereo not drawn): the TGI in the assay on HL-60(TB) leukemia, in the assay with EKVX NSCLC, in the assay with SF-539 CNS, in the assay with 786-0 renal, in the assay on HCT-116 colon and in the assay with HOP-62 NSCLC was > 100 µM in each case.
`COc1ccc2oc(-c3ccncc3)cc(=O)c2c1`: the TGI with HL-60(TB) leukemia, in the assay with 786-0 renal, in the assay on HCT-116 colon and with HOP-62 NSCLC was > 100 µM in each case.
In the case of `COc1ccc(CNc2nc3ccccc3nc2-c2cccs2)cc1OC`, the TGI with HL-60(TB) leukemia, in the assay with EKVX NSCLC, in the assay on SF-539 CNS, with 786-0 renal, in the assay with HCT-116 colon and with HOP-62 NSCLC was > 100 µM in each case.
`Cn1cc2ccccc2c1-c1nc(F)nc(Oc2ccc3c(c2)CC[C@@H]2C3CC[C@]3(C)C(O)CCC23)n1` (stereo partly drawn): the TGI in the assay on SF-539 CNS turned out to be 32.7 µM; in the assay with 786-0 renal it was 30.5 µM; in the assay with HCT-116 colon, 35.8 µM; in the assay with HOP-62 NSCLC, 33 µM.
`CC(=O)OCCC/C(=C\c1ccc2ccccc2c1)[N+](=O)[O-]`: the GI50 with HL-60(TB) leukemia is > 100 µM; in the assay with PC-3 prostate it was 1.93 µM; with SF-539 CNS, 1.76 µM; in the assay on 786-0 renal, 1.81 µM; with BT-549 breast, 1.72 µM; in the assay with HCT-116 colon, 1.61 µM. Besides, the results for the GI50 with DU-145 prostate and in the assay with HOP-62 NSCLC were 1.65 µM and 2 µM, respectively. Besides, the TGI in the assay with HL-60(TB) leukemia was > 100 µM; in the assay on PC-3 prostate, 4.24 µM; with SF-539 CNS it was 3.32 µM; with 786-0 renal, 3.35 µM; with BT-549 breast it was 3.42 µM; in the assay with HCT-116 colon, 3.3 µM. The TGI in the assay with DU-145 prostate was determined as 3.4 µM; with HOP-62 NSCLC it was 4.09 µM.
`COc1cc2c(cc1OCCCCC(=O)Nc1ccc(-c3nc4ccccc4s3)cc1)N=C[C@@H]1CCCN1C2=O`: the GI50 is 1.77 µM in the assay on HL-60(TB) leukemia; 2.45 µM in the assay with EKVX NSCLC; 2.04 µM with PC-3 prostate; 1.59 µM in the assay with SF-539 CNS; 1.96 µM in the assay with T-47D breast; 1.56 µM in the assay with 786-0 renal. For the same compound, the GI50 was 1.13 µM in the assay with BT-549 breast, 1.86 µM with HCT-116 colon and 2.45 µM in the assay with HOP-62 NSCLC. Also, the TGI in the assay with HL-60(TB) leukemia was determined as 6.31 µM; in the assay on EKVX NSCLC, 5.52 µM; in the assay with PC-3 prostate, 5.93 µM; in the assay with SF-539 CNS, 3.38 µM; in the assay on T-47D breast, 10.1 µM; in the assay with 786-0 renal it was 3.51 µM. For the same compound, the TGI in the assay with BT-549 breast was determined as 2.36 µM; with HCT-116 colon, 5.78 µM; in the assay on HOP-62 NSCLC, 6.62 µM.
As to `CNC1=C(C)C(=O)C(C)=C(C(C)(C)CC(=O)n2cc(F)c(=O)[nH]c2=O)C1=O`, the TGI was > 100 µM in the assay on HL-60(TB) leukemia; > 100 µM with EKVX NSCLC; > 100 µM in the assay with SF-539 CNS; > 100 µM with 786-0 renal; > 100 µM with HCT-116 colon; > 53.8 µM in the assay on HOP-62 NSCLC.
